Measured values: the NIST ThermoML archive (doi:10.1021/je060271a)
Where “and” joins values, the source holds several entries; their conditions need not be identical. Identical values can stand only once.

Settings: 283.16 K, Liquid, Vibrating tube method

CCCC(=O)OCC(COC(=O)CCC)(COC(=O)CCC)COC(=O)CCC [pentaerythritol tetrabutyrate]
Settings | mass density
961.7 kPa | 1059.5 kg/m3
999.7 kPa | 1059.6 kg/m3
1040.4 kPa | 1059.6 kg/m3
1083.6 kPa | 1059.5 kg/m3
1139.2 kPa | 1059.6 kg/m3
1188.5 kPa | 1059.7 kg/m3
1241.1 kPa | 1059.6 kg/m3
1292.9 kPa | 1059.7 kg/m3
1371.5 kPa | 1059.9 kg/m3
1415.8 kPa | 1059.8 kg/m3
1495.3 kPa | 1059.8 kg/m3
1575.5 kPa | 1059.9 kg/m3
1654.8 kPa | 1060 kg/m3
1780.7 kPa | 1060 kg/m3
1864.8 kPa | 1060 kg/m3
1998.8 kPa | 1060 kg/m3
2122.7 kPa | 1060.1 kg/m3
2233.6 kPa | 1060.3 kg/m3
2404.2 kPa | 1060.4 kg/m3
2613.1 kPa | 1060.5 kg/m3
2776.8 kPa | 1060.6 kg/m3
2989.2 kPa | 1060.8 kg/m3
3065.6 kPa | 1060.8 kg/m3
3087.4 kPa | 1060.8 kg/m3
3106 kPa | 1060.8 kg/m3
3124.9 kPa | 1060.8 kg/m3
3144.5 kPa | 1060.9 kg/m3
3170 kPa | 1060.8 kg/m3
3189.5 kPa | 1060.9 kg/m3
3209.5 kPa | 1060.9 kg/m3
3233.2 kPa | 1060.9 kg/m3
3253.5 kPa | 1060.9 kg/m3
3273.9 kPa | 1060.9 kg/m3
3294.9 kPa | 1061 kg/m3
3316.1 kPa | 1060.8 kg/m3
3341.2 kPa | 1060.9 kg/m3
3361.8 kPa | 1061 kg/m3
3387.1 kPa | 1061.1 kg/m3
3409.1 kPa | 1061 kg/m3
3431.1 kPa | 1061 kg/m3
3452.8 kPa | 1061 kg/m3
3479 kPa | 1061.1 kg/m3
3502 kPa | 1060.9 kg/m3
3524 kPa | 1061.1 kg/m3
3546.7 kPa | 1061.2 kg/m3
3574.4 kPa | 1061.1 kg/m3
3597.5 kPa | 1061.1 kg/m3
3620.7 kPa | 1061.1 kg/m3
3648.8 kPa | 1061.1 kg/m3
3672.5 kPa | 1061.2 kg/m3
3696.2 kPa | 1061.2 kg/m3
3720.5 kPa | 1061.2 kg/m3
3749.6 kPa | 1061.2 kg/m3
3773 kPa | 1061.2 kg/m3
3845.7 kPa | 1061.3 kg/m3
3868.4 kPa | 1061.3 kg/m3
3891.5 kPa | 1061.4 kg/m3
3914 kPa | 1061.3 kg/m3
3941.5 kPa | 1061.3 kg/m3
3964.7 kPa | 1061.3 kg/m3
3987.6 kPa | 1061.4 kg/m3
4009.4 kPa | 1061.4 kg/m3
4029.8 kPa | 1061.4 kg/m3
4033 kPa | 1061.4 kg/m3
4416.7 kPa | 1061.6 kg/m3
4447.7 kPa | 1061.7 kg/m3
4473.5 kPa | 1061.6 kg/m3
4500 kPa | 1061.6 kg/m3
4526.4 kPa | 1061.8 kg/m3
4559.5 kPa | 1061.7 kg/m3
4586.3 kPa | 1061.8 kg/m3
4619.9 kPa | 1061.7 kg/m3
4643.6 kPa | 1061.7 kg/m3
4676.5 kPa | 1061.6 kg/m3
4704.4 kPa | 1061.8 kg/m3
4732.4 kPa | 1061.8 kg/m3
4765.8 kPa | 1061.8 kg/m3
4794.4 kPa | 1061.8 kg/m3
4823.6 kPa | 1061.8 kg/m3
4858.1 kPa | 1061.8 kg/m3
4887.2 kPa | 1061.9 kg/m3
4916.6 kPa | 1061.9 kg/m3
4946.3 kPa | 1061.9 kg/m3
4983.2 kPa | 1061.9 kg/m3
4995.1 kPa | 1062.1 kg/m3
4995.4 kPa | 1061.9 kg/m3
4997.5 kPa | 1062.1 kg/m3
4999.9 kPa | 1062 kg/m3
5001.3 kPa | 1061.9 kg/m3
5002.4 kPa | 1061.9 kg/m3
5003.4 kPa | 1062 kg/m3
5003.7 kPa | 1062 kg/m3
5004.3 kPa | 1061.9 kg/m3
5004.6 kPa | 1062 kg/m3
5004.8 kPa | 1062 kg/m3
5005 kPa | 1062 kg/m3
5005.3 kPa | 1062.1 kg/m3
5005.5 kPa | 1062 kg/m3
5005.6 kPa | 1062.1 kg/m3 and 1062 kg/m3
5005.8 kPa | 1062 kg/m3
5006 kPa | 1061.8 kg/m3
5006.2 kPa | 1061.9 kg/m3
5006.3 kPa | 1061.9 kg/m3 and 1062 kg/m3
5006.5 kPa | 1062.1 kg/m3 and 1062 kg/m3
5006.7 kPa | 1061.9 kg/m3
5006.9 kPa | 1061.9 kg/m3 and 1062 kg/m3
5007 kPa | 1062.1 kg/m3 and 1062 kg/m3
5007.2 kPa | 1061.9 kg/m3 and 1062.1 kg/m3 and 1062 kg/m3
5007.4 kPa | 1061.9 kg/m3 and 1062 kg/m3
5007.5 kPa | 1062 kg/m3
5007.7 kPa | 1062 kg/m3 and 1061.9 kg/m3
5007.9 kPa | 1062.1 kg/m3 and 1062 kg/m3
5008 kPa | 1062 kg/m3 and 1062.1 kg/m3
5008.1 kPa | 1061.9 kg/m3 and 1062.2 kg/m3 and 1062 kg/m3
5008.2 kPa | 1062 kg/m3 and 1061.9 kg/m3
5008.3 kPa | 1062 kg/m3 and 1061.9 kg/m3
5008.5 kPa | 1062 kg/m3 and 1062.1 kg/m3
5008.6 kPa | 1061.9 kg/m3
5009.4 kPa | 1061.9 kg/m3
5009.6 kPa | 1061.9 kg/m3 and 1062 kg/m3
5009.8 kPa | 1062 kg/m3 and 1061.9 kg/m3
5010 kPa | 1062 kg/m3
5010.1 kPa | 1061.9 kg/m3 and 1062 kg/m3
5010.3 kPa | 1062 kg/m3 and 1062.1 kg/m3 and 1061.9 kg/m3
5010.5 kPa | 1061.9 kg/m3
5010.7 kPa | 1062.1 kg/m3 and 1062 kg/m3
5010.8 kPa | 1062 kg/m3 and 1061.9 kg/m3
5011 kPa | 1062.2 kg/m3
5011.2 kPa | 1062.1 kg/m3 and 1061.9 kg/m3
5011.3 kPa | 1062 kg/m3
5011.7 kPa | 1061.9 kg/m3 and 1062 kg/m3 and 1062.1 kg/m3
5011.9 kPa | 1061.9 kg/m3 and 1062 kg/m3
5012 kPa | 1061.9 kg/m3
5012.2 kPa | 1062 kg/m3 and 1062.1 kg/m3 and 1061.9 kg/m3
5012.4 kPa | 1062 kg/m3 and 1061.9 kg/m3 and 1062.1 kg/m3
5012.6 kPa | 1062 kg/m3 and 1061.9 kg/m3 and 1061.8 kg/m3
5012.7 kPa | 1062 kg/m3
5012.9 kPa | 1062 kg/m3
5013.1 kPa | 1062 kg/m3
5013.8 kPa | 1062 kg/m3
5013.9 kPa | 1062 kg/m3
5017.5 kPa | 1062 kg/m3
5022.8 kPa | 1062 kg/m3
5022.9 kPa | 1062.1 kg/m3
5025.4 kPa | 1062 kg/m3
5025.5 kPa | 1062 kg/m3
